# Experimental data from patent publication US20240343699A1, “DERIVATIVES OF SUBSTITUTED MORPHOLINES AND USES THEREOF” (Supernus Pharmaceuticals, Inc., priority 2023, published 2024).
# Values joined by “and” are separate entries in the source; they are usually repeats but may differ in a detail not shown here. Identical values can stand only once. Like-named read-outs stand apart in the source and are kept apart here.
# Tests used:
# locomotor activity = assay: SmartCage locomotor activity; settings: 24 hr
# [1] = Metabolic stability in human intestinal homogenate; type: in vitro ADME; settings: human intestinal homogenate, 1 μM; for half-life at 1 μM / microsomal CLint at 1 μM: pH 7.2; for microsomal CLint at 1 μM: read-out: CLint(HIH)
# Procedure: Incubation Buffer (PBK): 50 mM potassium phosphate buffer (PBK) was prepared from 1 M potassium phosphate buffer, pH 7.2. […] The dilution of 1 mM intermediate was prepared from 10 mM stock with 90% methanol/water, then […] working solutions were prepared by diluting the 1 mM intermediates with 50 mM PBK. […] Prior to use, the stock solutions were brought to room temperature and thoroughly mixed. […] Cofactors Solutions: the cofactor solution was made at 10 mM of NADPH (nicotinamide-adenine dinucleotide phosphate, reduced form) in 50 mM PBK buffer.
# The incubation was carried out in 96-well plates. The intestinal homogenate mixture solution was added to 96-well plates (80 μL/well) in duplicate. […] Reaction was initiated by adding cofactor solution at 10 µL/well. The plates were incubated at 37° C. in a water bath with shaking. […] The final organic solvent content in the incubation was ≤1%.
# At specified time points, i.e., 5, 10, 20, 30 and 60 minutes, NCF60 (no cofactor at 60 min, without adding NADPH replaced with 50 mM PBK buffer) reaction was stopped by adding three volumes of stop solution. The time zero (To) samples were prepared by adding three volumes of stop solution to intestinal homogenate samples, followed by addition of test article or control, and cofactor solution 10 μL/well.
# Subsequently, 100 μL of supernatant was removed from each well, diluted with 100 μL pure water and analyzed by LC/MS/MS.
# A study was conducted to examine the metabolic stability. […] Positive controls: 7-hydroxycoumarin and Testosterone.
# [2] = In vitro stability in human plasma; type: in vitro ADME; settings: human plasma, 2.0 μM
# Procedure: Test Article Solutions: COMPOUND A, COMPOUND B and COMPOUND C stock solutions at 10 mM were prepared in dimethyl sulfoxide (DMSO). Further dilution with DMSO was made to prepare 2.0 mM. The working solutions of 50 μM was prepared with 20% MeOH/water. […] Prior to use, the stock solutions were brought to room temperature and thoroughly mixed and prepared same as described above.
# Incubations were conducted in 96-well plate format. The time points defined for this study are 0, 5, 15, 30 and 60 minutes.
# An appropriate volume of plasma from test species were added to a 96-deep well plate, and COMPOUND A, COMPOUND B and COMPOUND C working solution was spiked into the plasma in duplicate to achieve a final concentration of 2.0 μM. For positive controls, the rat plasma was spiked with enalapril, the dog plasma spiked with bisacodyl and the human plasma was spiked with propantheline. All spiked plasma sample plates were incubated in a water bath at 37° C. with shaking.
# At the end of each time point, samples were immediately quenched with three volume of cold quenching solution.
# A study was conducted to examine the plasma stability. Test Compounds: COMPOUND D, COMPOUND E, and Viloxazine. Positive controls: Enalapril and Propantheline.
# [3] = 80 mg/kg PO; for Clinical observation (tolerability): beagle dogs; for plasma concentration of the analog itself: LLOQ 3.0 ng/mL; for Tlast: COMPOUND C (parent) in plasma
# [4] = Preclinical PK after intraperitoneal dosing of COMPOUND D, COMPOUND B and viloxazine; type: in vivo, mouse; settings: COMPOUND B IP 10.948 mg/kg; for concentration at 0.25 h / concentration at 0.5 h: read-out: Plasma concentration of COMPOUND B; for MRT last: read-out: MRT0-last, plasma COMPOUND B; for Tmax: read-out: Tmax, plasma COMPOUND B
# [5] = mouse, plasma, ip, 10.948 mg/kg, individual mice
# [6] = mouse, plasma, ip, 10.948 mg/kg, mean
structure (smiles),measurement,setting,value
CCOc1ccccc1OC[C@@H]1CN(C(=O)OC(C)OC(=O)[C@@H](N)C(C)C)CCO1 (stereo partly shown) [COMPOUND A],"home cage activity (activity, rearing, distance, velocity)","locomotor activity; COMPOUND A 10, 30 and 90 mg/kg PO",no significant effect on daytime or nighttime activity measurements
same,% Remaining,[1]; 0 min,100%
same,Analyte Peak area/IS Peak area Mean (n = 2),[1]; 0 min,0.269
same,% Remaining,[1]; 5 min,0%
same,Analyte Peak area/IS Peak area Mean (n = 2),[1]; 5 min,0.000
same,% Remaining,[1]; 10 min,0%
same,Analyte Peak area/IS Peak area Mean (n = 2),[1]; 10 min,0.000
same,% Remaining,[1]; 20 min,0%
same,Analyte Peak area/IS Peak area Mean (n = 2),[1]; 20 min,0.000
same,% Remaining,[1]; 30 min,0%
same,Analyte Peak area/IS Peak area Mean (n = 2),[1]; 30 min,0.000
same,% Remaining,[1]; 60 min,0%
same,Analyte Peak area/IS Peak area Mean (n = 2),[1]; 60 min,0.000
same,% Remaining,[1]; NCF60 (no cofactor at 60 min),0%
same,Analyte Peak area/IS Peak area Mean (n = 2),[1]; NCF60 (no cofactor at 60 min),0.000
same,half-life at 1 μM,[1],< 2.5 min
same,half-life at 2 μM,[2],94.9 min
same,% Remaining,[2]; 0 min,100%
same,Analyte Peak area/IS Peak area Mean (N = 2),[2]; 0 min,2.31
same,% Remaining,[2]; 5 min,107%
same,Analyte Peak area/IS Peak area Mean (N = 2),[2]; 5 min,2.46
same,% Remaining,[2]; 15 min,93.1%
same,Analyte Peak area/IS Peak area Mean (N = 2),[2]; 15 min,2.15
same,% Remaining,[2]; 30 min,80.8%
same,Analyte Peak area/IS Peak area Mean (N = 2),[2]; 30 min,1.86
same,Analyte Peak area/IS Peak area Mean (N = 2),[2]; 60 min,1.57
same,Clinical observation (tolerability),[3],well tolerated
same,plasma concentration of the analog itself,[3],mostly below the LLOQ
CCOc1ccccc1OC[C@@H]1CN(C(=O)OC(OC(=O)[C@@H](N)C(C)C)C(C)C)CCO1 (stereo partly shown) [COMPOUND B],Plasma concentration of COMPOUND B,"[4]; 0.250 h, individual mice, 10.948 mg/kg",BQL and 17.7 ng/mL
same,Plasma concentration of COMPOUND B,"[4]; 0.500 h, individual mice, 10.948 mg/kg",4.88 ng/mL and 8.44 ng/mL
same,Plasma concentration of COMPOUND B,"[4]; 1.00 h, individual mice",BQL
same,Plasma concentration of COMPOUND B,"[4]; 2.00 h, individual mice",BQL
same,Plasma concentration of COMPOUND B,"[4]; 4.00 h, individual mice",BQL
same,Plasma concentration of Viloxazine,"[4]; 4.00 h, individual mice, 10.948 mg/kg",BQL
same,Plasma concentration of COMPOUND B,"[4]; 8.00 h, individual mice",BQL
same,Plasma concentration of Viloxazine,"[4]; 8.00 h, individual mice, 10.948 mg/kg",BQL
same,Plasma concentration of COMPOUND B,"[4]; 24.0 h, individual mice",BQL
same,Plasma concentration of Viloxazine,"[4]; 24.0 h, individual mice",BQL
same,"Tlast, plasma COMPOUND B",[4]; individual mice,0.500 h
same,"AUC0-last, plasma COMPOUND B","[4]; individual mice, 10.948 mg/kg",6.48 ng·h/mL and 1.22 ng·h/mL and 5.34 ng·h/mL
same,"Cmax, plasma COMPOUND B","[4]; individual mice, 10.948 mg/kg",25.4 ng/mL and 4.88 ng/mL and 17.7 ng/mL
same,"MRT0-last, plasma COMPOUND B","[4]; individual mice, 10.948 mg/kg",30 min and 18.8 min
same,"Tmax, plasma COMPOUND B","[4]; individual mice, 10.948 mg/kg",30 min and 15 min
same,"Tlast, plasma COMPOUND B",[4]; mean,0.500 h
same,concentration at 0.25 h,"[4]; mouse, plasma, ip, 10.948 mg/kg, 0.250 h, individual mice",25.4 ng/mL
same,concentration at 0.25 h,"[4]; mouse, plasma, ip, 10.948 mg/kg, 0.250 h, mean",21.6 ng/mL
same,concentration at 0.5 h,"[4]; mouse, plasma, ip, 10.948 mg/kg, 0.500 h, individual mice",5.75 ng/mL
same,concentration at 0.5 h,"[4]; mouse, plasma, ip, 10.948 mg/kg, 0.500 h, mean",6.36 ng/mL
same,MRT last,[4]; [5],17.9 min
same,Tmax,[4]; [5],15 min
same,AUC(0-t),"[4]; mouse, plasma, ip, 10.948 mg/kg, mean, read-out: AUC0-last, plasma COMPOUND B",4.35 ng·h/mL
same,Cmax,"[4]; mouse, plasma, ip, 10.948 mg/kg, mean, read-out: Cmax, plasma COMPOUND B",16 ng/mL
same,MRT last,[4]; [6],22.3 min
same,Tmax,[4]; [6],20 min
same,% Remaining,[1]; 0 min,100%
same,Analyte Peak area/IS Peak area Mean (n = 2),[1]; 0 min,0.275
same,% Remaining,[1]; 5 min,7.3%
same,Analyte Peak area/IS Peak area Mean (n = 2),[1]; 5 min,0.020
same,% Remaining,[1]; 10 min,7.1%
same,Analyte Peak area/IS Peak area Mean (n = 2),[1]; 10 min,0.020
same,% Remaining,[1]; 20 min,6.1%
same,Analyte Peak area/IS Peak area Mean (n = 2),[1]; 20 min,0.017
same,% Remaining,[1]; 30 min,2.7%
same,Analyte Peak area/IS Peak area Mean (n = 2),[1]; 30 min,0.007
same,% Remaining,[1]; 60 min,0.57%
same,Analyte Peak area/IS Peak area Mean (n = 2),[1]; 60 min,0.002
same,% Remaining,[1]; NCF60 (no cofactor at 60 min),0.8%
same,Analyte Peak area/IS Peak area Mean (n = 2),[1]; NCF60 (no cofactor at 60 min),0.002
same,half-life at 1 μM,[1],10.3 min
same,microsomal CLint at 1 μM,[1],135 µL/min/mg
same,half-life at 2 μM,[2],> 187 min
same,% Remaining,[2]; 0 min,100%
same,Analyte Peak area/IS Peak area Mean (N = 2),[2]; 0 min,1.90
same,% Remaining,[2]; 5 min,90.6%
same,Analyte Peak area/IS Peak area Mean (N = 2),[2]; 5 min,1.72
same,% Remaining,[2]; 15 min,94.5%
same,Analyte Peak area/IS Peak area Mean (N = 2),[2]; 15 min,1.79
same,% Remaining,[2]; 30 min,87.1%
same,Analyte Peak area/IS Peak area Mean (N = 2),[2]; 30 min,1.65
same,% Remaining,[2]; 60 min,91.5%
same,Analyte Peak area/IS Peak area Mean (N = 2),[2]; 60 min,1.73
same,Clinical observation (tolerability),[3],well tolerated
same,plasma concentration of the analog itself,[3],mostly below the LLOQ
CCOc1ccccc1OC[C@@H]1CN(C(=O)OC(OC(=O)[C@H](N)C(C)C)C(C)C)CCO1 (stereo partly shown) [COMPOUND C],"home cage activity (activity, rearing, distance, velocity)","locomotor activity; COMPOUND C 10, 30, 60 and 90 mg/kg PO",no significant effect on daytime or nighttime activity measurements
same,% Remaining,[1]; 0 min,100%
same,Analyte Peak area/IS Peak area Mean (n = 2),[1]; 0 min,0.286
same,% Remaining,[1]; 5 min,4.4%
same,Analyte Peak area/IS Peak area Mean (n = 2),[1]; 5 min,0.013
same,% Remaining,[1]; 10 min,3.0%
same,Analyte Peak area/IS Peak area Mean (n = 2),[1]; 10 min,0.009
same,% Remaining,[1]; 20 min,1.3%
same,Analyte Peak area/IS Peak area Mean (n = 2),[1]; 20 min,0.004
same,% Remaining,[1]; 30 min,0.67%
same,Analyte Peak area/IS Peak area Mean (n = 2),[1]; 30 min,0.002
same,% Remaining,[1]; 60 min,0.08%
same,Analyte Peak area/IS Peak area Mean (n = 2),[1]; 60 min,0.000
same,% Remaining,[1]; NCF60 (no cofactor at 60 min),0.12%
same,Analyte Peak area/IS Peak area Mean (n = 2),[1]; NCF60 (no cofactor at 60 min),0.000
same,half-life at 1 μM,[1],7.2 min
same,microsomal CLint at 1 μM,[1],192 µL/min/mg
same,half-life at 2 μM,[2],> 187 min
same,% Remaining,[2]; 0 min,100%
same,Analyte Peak area/IS Peak area Mean (N = 2),[2]; 0 min,1.99
same,% Remaining,[2]; 5 min,92.3%
same,Analyte Peak area/IS Peak area Mean (N = 2),[2]; 5 min,1.84
same,% Remaining,[2]; 15 min,88.3%
same,Analyte Peak area/IS Peak area Mean (N = 2),[2]; 15 min,1.76
same,% Remaining,[2]; 30 min,86.1%
same,Analyte Peak area/IS Peak area Mean (N = 2),[2]; 30 min,1.71
same,% Remaining,[2]; 60 min,84.4%
same,Analyte Peak area/IS Peak area Mean (N = 2),[2]; 60 min,1.68
same,Clinical observation (tolerability),[3],well tolerated
same,plasma concentration of the analog itself,[3],well above LLOQ
same,Tlast,[3]; female beagle dogs,16.0 h
same,Tlast,[3]; male beagle dogs,16.0 h
